Results published in PubChem BioAssay AID1963832 (Molecular Pharmacology Branch, DTP, NCI, 2024).

System: 885724-159-R-J1-PDC complex spheroid viability
Assay: Anticancer human tumor 885724-159-R-J1-PDC patient-derived pancreatic adenocarcinoma cell line growth inhibition [POLQ]
Conditions: for IC50: curve of first compound; for viability, T/C: stronger effect = lower value; active = viability on the fitted dose curve at most 10% of control; inactive = the rest
In short: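 Patient-derived tumour cells were co-cultured with HUVEC and mesenchymal stem cells as multicellular spheroids at 37 °C. They were treated with POLQ inhibitors (novobiocin, ART-558, RP6685) alone or combined with other agents. Top concentrations were at or near clinical Cmax (otherwise 10 microM; SN-38 at 1 microM), decreasing in half-log steps.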

[1] = second compound 0.0316 µM, first compound 0.0316 µM
[2] = second compound 0.0316 µM, first compound 0.1 µM
[3] = second compound 0.0316 µM, first compound 0.316 µM
[4] = second compound 0.0316 µM, first compound 1 µM
[5] = second compound 0.0316 µM, first compound 3.16 µM
[6] = second compound 0.0316 µM, first compound 10 µM
[7] = second compound 0.1 µM, first compound 0.0316 µM
[8] = second compound 0.1 µM, first compound 0.1 µM
[9] = second compound 0.1 µM, first compound 0.316 µM
[10] = second compound 0.1 µM, first compound 1 µM
[11] = second compound 0.1 µM, first compound 3.16 µM
[12] = second compound 0.1 µM, first compound 10 µM
[13] = second compound 0.316 µM, first compound 0.0316 µM
[14] = second compound 0.316 µM, first compound 0.1 µM
[15] = second compound 0.316 µM, first compound 0.316 µM
[16] = second compound 0.316 µM, first compound 1 µM
[17] = second compound 0.316 µM, first compound 3.16 µM
[18] = second compound 0.316 µM, first compound 10 µM
[19] = second compound 1 µM, first compound 0.0316 µM
[20] = second compound 1 µM, first compound 0.1 µM
[21] = second compound 1 µM, first compound 0.316 µM
[22] = second compound 1 µM, first compound 1 µM
[23] = second compound 1 µM, first compound 3.16 µM
[24] = second compound 1 µM, first compound 10 µM
[25] = second compound 3.16 µM, first compound 0.0316 µM
[26] = second compound 3.16 µM, first compound 0.1 µM
[27] = second compound 3.16 µM, first compound 0.316 µM
[28] = second compound 3.16 µM, first compound 1 µM
[29] = second compound 3.16 µM, first compound 3.16 µM
[30] = second compound 3.16 µM, first compound 10 µM
[31] = second compound 10 µM, first compound 0.0316 µM
[32] = second compound 10 µM, first compound 0.1 µM
[33] = second compound 10 µM, first compound 0.316 µM
[34] = second compound 10 µM, first compound 1 µM
[35] = second compound 10 µM, first compound 3.16 µM
[36] = second compound 10 µM, first compound 10 µM
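Note: spheroids exposed to compounds for 7 days.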

COc1cccc2c1C(=O)c1c(O)c3c(c(O)c1C2=O)CC(O)(C(=O)CO)CC3OC1CC(N)C(O)C(C)O1 (stereo unspecified) + Cc1cccc(N(C)C(=O)C2C(O)CCN2c2nc(C)cc(C(F)(F)F)c2C#N)c1
0.14 µM: IC50 (second compound 0.1 µM)
inactive: viability, T/C [1] 72.8% | viability, T/C [2] 57.1% | viability, T/C [3] 32.5% | viability, T/C [4] 11.3% | viability, T/C [7] 67.6% | viability, T/C [8] 55.5% | viability, T/C [9] 34.5% | viability, T/C [10] 11.9% | viability, T/C [13] 80.8% | viability, T/C [14] 57.1% | viability, T/C [15] 31% | viability, T/C [16] 8.3% | viability, T/C [19] 75.3% | viability, T/C [20] 51% | viability, T/C [21] 30.4% | viability, T/C [22] 10.5% | viability, T/C [25] 75.5% | viability, T/C [26] 51.7% | viability, T/C [27] 30.3% | viability, T/C [28] 5.5% | viability, T/C [31] 72.7% | viability, T/C [32] 55.6% | viability, T/C [33] 22.9%
0.117 µM: IC50 (second compound 3.16 µM)
0.124 µM: IC50 (second compound 10 µM)
0.139 µM: IC50 (second compound 0.316 µM)
0.112 µM: IC50 (second compound 1 µM)
0.142 µM: IC50 (second compound 0.0316 µM)
active: viability, T/C [5] 5.41% | viability, T/C [6] 6.51% | viability, T/C [11] 5.56% | viability, T/C [12] 8.59% | viability, T/C [17] 5.71% | viability, T/C [18] 9.04% | viability, T/C [23] 5.49% | viability, T/C [24] 6.59% | viability, T/C [29] 6.53% | viability, T/C [30] 6.91% | viability, T/C [34] 2.58% | viability, T/C [35] 4.96% | viability, T/C [36] 6.82%

Nc1ccn(C2OC(CO)C(O)C2(F)F)c(=O)n1 (stereo unspecified) + Cc1cccc(N(C)C(=O)C2C(O)CCN2c2nc(C)cc(C(F)(F)F)c2C#N)c1
5.14 µM: IC50 (second compound 0.0316 µM)
inactive: viability, T/C [1] 59.3% | viability, T/C [2] 55.2% | viability, T/C [3] 55.2% | viability, T/C [4] 52.1% | viability, T/C [5] 56.2% | viability, T/C [6] 42.8% | viability, T/C [7] 70.7% | viability, T/C [8] 56% | viability, T/C [9] 57.5% | viability, T/C [10] 58.2% | viability, T/C [11] 55.3% | viability, T/C [12] 45.9% | viability, T/C [13] 67.2% | viability, T/C [14] 58.5% | viability, T/C [15] 55% | viability, T/C [16] 57.6% | viability, T/C [17] 53.1% | viability, T/C [18] 45.4% | viability, T/C [19] 65.1% | viability, T/C [20] 55.4% | viability, T/C [21] 58.2% | viability, T/C [22] 57.4% | viability, T/C [23] 53.1% | viability, T/C [24] 42.8% | viability, T/C [25] 66% | viability, T/C [26] 56.7% | viability, T/C [27] 52% | viability, T/C [28] 56.8% | viability, T/C [29] 54.5% | viability, T/C [30] 42.8% | viability, T/C [31] 68.9% | viability, T/C [32] 55.5% | viability, T/C [33] 59.3% | viability, T/C [34] 56% | viability, T/C [35] 58% | viability, T/C [36] 45.1%
3.06 µM: IC50 (second compound 3.16 µM)
7.26 µM: IC50 (second compound 10 µM)
> 10 µM: IC50 (second compound 0.1 µM)
4.24 µM: IC50 (second compound 0.316 µM)
4.15 µM: IC50 (second compound 1 µM)

O=c1[nH]cc(F)c(=O)[nH]1 + Cc1cccc(N(C)C(=O)C2C(O)CCN2c2nc(C)cc(C(F)(F)F)c2C#N)c1
> 10 µM: IC50 (second compound 0.0316 µM) | IC50 (second compound 0.1 µM) | IC50 (second compound 0.316 µM) | IC50 (second compound 1 µM) | IC50 (second compound 3.16 µM) | IC50 (second compound 10 µM)
inactive: viability, T/C [1] 98.5% | viability, T/C [2] 101% | viability, T/C [3] 95.8% | viability, T/C [4] 100% | viability, T/C [5] 90.2% | viability, T/C [6] 76.4% | viability, T/C [7] 97.7% | viability, T/C [8] 104% | viability, T/C [9] 98.7% | viability, T/C [10] 106% | viability, T/C [11] 90% | viability, T/C [12] 74.7% | viability, T/C [13] 98.7% | viability, T/C [14] 88.6% | viability, T/C [15] 97.5% | viability, T/C [16] 99% | viability, T/C [17] 87.5% | viability, T/C [18] 71.9% | viability, T/C [19] 111% | viability, T/C [20] 107% | viability, T/C [21] 101% | viability, T/C [22] 98.2% | viability, T/C [23] 92% | viability, T/C [24] 76.7% | viability, T/C [25] 114% | viability, T/C [26] 96.2% | viability, T/C [27] 88% | viability, T/C [28] 100% | viability, T/C [29] 87.3% | viability, T/C [30] 71.7% | viability, T/C [31] 99% | viability, T/C [32] 101% | viability, T/C [33] 89.8% | viability, T/C [34] 89.4% | viability, T/C [35] 92.9% | viability, T/C [36] 78.6%
